`CCCc1nc2c(N)nc3cc(Br)ccc3c2s1`: the melting point – broadly, the temperature, or range, at which the solid turns liquid – is 160 to 163 °C.

The molecule `O=C1Nc2ccccc2C1(c1ccc(O)cc1)c1ccc(O)cc1` showed a melting point of 267 °C. `Cc1oc(-c2ccccc2)nc1CCc1nc(COc2cccc(CC(=O)O)c2)co1` came in with a melting point of 127 to 128 °C. For the molecule `Nc1cc(=O)n(Cc2ccc(I)cc2)[nH]1`, the melting point worked out at 158 °C. The figure for `CNc1nccc(-c2cc(NCCCNc3ncnc4[nH]nc(Br)c34)c3cc(OC)ccc3c2)n1` is 145 to 148 °C; for `[N-]=[N+]=NCn1cc(Cl)c(-c2cc(Cl)cc(Cl)c2)n1` it is 74 °C; for `O=C(Cl)c1c(Cl)cc([N+](=O)[O-])cc1Cl` it is 63 to 65 °C. The figure for `Cc1cccc(C)c1NC(=O)N1CC(C)(C)NC1=S` is 242 to 243 °C.

`Cc1oc(C2=NOC(c3cc(Cl)cc(Cl)c3)(C(F)(F)F)C2)cc1C(=O)NCC(=O)NCC(F)(F)F` (configuration not stated) showed a melting point of 172 to 174 °C. `CC(C)(C)N(NC(=O)c1ccccc1)C(=S)c1ccccc1` came in with a melting point of 169 to 171 °C.

`COc1cc(C)nc2c(OCc3c(Cl)ccc(N(C)C(=O)CN4C(=O)c5ccccc5C4=O)c3Cl)cccc12` registered a melting point of 209 to 210 °C.

In turn, `CCOC(C#N)NC(=O)c1cccc(OC)c1` (configuration not stated) gave a melting point of 72 °C. The molecule `CCOC(=O)c1cn(-c2cc(NC=O)c(F)cc2F)c2c(F)c(F)c(F)c(NCc3ccccc3)c2c1=O` yielded a melting point of 151 to 156 °C. The figure for `CCc1c(CNc2cccc(N)n2)c(CC)c(CNc2cccc(N)n2)c(CC)c1CNc1cccc(N)n1` is 164 to 165 °C; for `CC(=O)c1c(C)nc2c(OCc3c(Cl)ccc(S(=O)(=O)N4CCC[C@H]4C(=O)NCCCNC(=O)c4ccc(C(N)=NO)cc4)c3Cl)cccn12` it is 164 to 166 °C; for `Cc1ccnc(N2CCN(CCc3c(C)n4c5c(cc([N+](=O)[O-])cc35)CCC4)CC2)c1` it is 230 °C. The figure for `CCOC(=O)c1ccc(NC(=O)CCc2ccc3ccccc3c2)cc1` is 119 to 121 °C. Next, `O=C(Nc1ccc(-c2cnc(-c3ccc(NC(=O)C45CC6CC(CC(C6)C4)C5)cc3)[nH]2)cc1)c1cccnc1`: 251 to 252 °C; `CNc1nc(-c2ccccc2)c(-c2nc3ccccc3c(=O)n2-c2ccccc2C)s1`: 220 to 225 °C. As for `C[C@H](NC(=O)OC(C)(C)C)C(=O)N1CCC[C@H]1C(=O)O`, the melting point lay in the range of 155 to 157 °C. Next, `CC1CC2C3CCC4=CC(=O)C=CC4(C)C3C(=O)CC2(C)C1C(=O)COC(=O)C(C)(C)C` (configuration not stated): 201 to 202 °C; `Cc1ccc(S(=O)(=O)Oc2ccc(C(C)(C)C)cc2C(C)(C)C)cc1`: 81 °C; `Nc1ccc(-c2noc(-c3cnn4c(C(F)F)cc(-c5ccc(Cl)c(Cl)c5)nc34)n2)cn1`: 279 °C. The figure for `O=c1[nH]c2ccc(Br)cc2cc1[N+](=O)[O-]` is 276 °C. The figure for `CC(=O)Nc1nc(-c2ccccc2)c(-c2ccnc(Nc3ccccc3)n2)s1` is above 260 °C. Turning to `O=[N+]([O-])c1cc2nc(O)c(O)nc2c2nonc12`, the melting point is above 300 °C. Next, `NC1CCN(c2ccc([N+](=O)[O-])cn2)CC1`: 115 to 117 °C. The figure for `COc1ccc(NC(=O)/C=C/c2cc(OC)c(OC)c(OC)c2)cc1N` is 202 to 204 °C. On to `Cn1cnc2nc(-c3cc(C(C)(C)C)c(O)c(C(C)(C)C)c3)nn2c1=S`, for which the melting point is above 300 °C. Next, `COc1cccc(C=O)c1Oc1ccc([N+](=O)[O-])cc1`: 130 to 131 °C; `CC(C)(C)[Si](C)(C)O[C@H]1C=C(I)C(=O)C1`: 38.5 °C; `COc1ccc(C(O)c2sccc2C=O)cc1OC` (configuration not stated): 90 to 91 °C. Take `CN(CCOc1ccc(CC(Oc2ccc3ccccc3c2)C(=O)O)cc1)c1nc2ccccc2o1` (configuration not stated): the melting point lay in the range of 162 to 164 °C. The figure for `CNC1CN(c2cc3c(cc2F)c(=O)c(C(=O)O)cn3C2CC2)C1` is 245 to 249 °C; for `Cc1cccc2[nH]c(=O)c(=O)[nH]c12` it is 325 °C; for `O=C(C=CCc1c[nH]c2ccccc12)NC(C(=O)OCc1ccccc1)C(=O)OCc1ccccc1` it is 162 to 163 °C.

`C=C(c1ccccc1)c1cccc(C(=NOCc2ccc(OCc3nc(-c4ccccc4)oc3C)cc2)C(=O)O)c1` returned a melting point of 171 to 172 °C. As to `CN(N=[N+](C)[O-])c1ccccc1`, the melting point lay within 55 to 56 °C. The figure for `CC(C)(C)c1ccc2c(O)ccnc2c1` is 207 to 209 °C. In the case of `Cc1ccc(S(=O)(=O)C(CCl)Sc2cccc(C)c2)cc1` (configuration not stated), the melting point lay in the range of 80 to 97 °C. The molecule `CCOC(=O)C(Cc1ccc(C(F)(F)F)cc1)C(=O)c1cccc(F)c1` (configuration not stated) yielded a melting point of 50 to 51 °C. The figure for `COc1cccc(C(=O)Nc2cc(C(=O)NCc3ccccc3)ccn2)c1` is 95 to 96 °C. Molecule `CCCCOc1ccc2nc(C(=O)NCC(=O)O)c(O)cc2c1` returned a melting point of 180 to 182 °C. Next, `CNC(=S)C1(c2cccnc2)OCCCS1` (configuration not stated): 194 °C; `CC1COc2c(-c3ccccc3)ccc3c(=O)c(C(=O)O)cn1c23` (configuration not stated): 295 to 296 °C; `COc1ccc(F)cc1Oc1c(Cl)ncnc1NS(=O)(=O)c1ccc(C(F)(F)F)cc1`: 185 to 186 °C. `CCCCc1nc(-c2nc(C)nc(C)n2)ccc1C` had a melting point of 73.5 °C. Next, `Cc1ccc(NC(=O)C2C(=O)N(C)c3ccccc3S2(=O)=O)cc1` (configuration not stated): 218 to 220 °C; `S=C=NCc1cc(-c2ccc(Cl)cc2)no1`: 74 to 76 °C; `Cc1cccc(C(=O)N[C@@H](CC(C)C)C(=O)N[C@@H](C(C)C)[C@@H](O)c2c(-c3ccccc3)c2=O)n1`: 98 to 100 °C. The figure for `COc1cc2c(cc1OC)CCCC(C(=O)N1CCN(C(=O)c3cc(OC)c(OC)c(OC)c3)C(C(=O)N(C)C)C1)=C2` (configuration not stated) is 177 to 178 °C. `CCCCCCCCCC(=O)Nc1ccccc1` displayed a melting point of 65 to 66 °C.

As to `Cc1cc(CN(Cc2ccc(F)cc2)c2cc(-c3ccc(C(F)(F)F)cc3)nn2C)cc(C)c1OC(C)(C)C(=O)O`, the melting point was above 90 °C. Next, `Cn1cc(C(=O)O)c(=O)c2cc(Cl)c(N3CCNCC3)cc21`: 288 °C; `O=C(Nc1cccc(C(F)(F)F)c1)OCC1(COC(=O)Nc2cccc(C(F)(F)F)c2)CSc2ccccc2C1=O`: 58 to 63 °C; `O=C1C[C@H](O)[C@H](CC2CCCCC2)N1`: 141 to 143 °C. The figure for `CON(C(=O)c1cn(C)nc1C(F)F)C(C)c1cccc(-c2ccc(Cl)c(Cl)c2)c1` (configuration not stated) is 162 to 164 °C. The figure for `NCC1CCc2[nH]c3cc(Cl)c(F)cc3c2C1` (configuration not stated) is 180 to 181 °C. `COc1ccc(C(=O)NC(=S)Nc2ccccc2C(N)=O)cc1` had a melting point of 193 to 196 °C. The figure for `CCOC(=O)CCC(=O)c1c(COC(C)=O)c(COC(C)=O)cc2cc(OC)c(OC)cc12` is 85 to 87 °C; for `CCc1nn2c(N)cc(N3CCN(C)CC3)nc2c1S(=O)(=O)c1ccccc1` it is above 250 °C. Consider `OC12C=C(C3NCCc4c3[nH]c3ccccc43)C3CCN(CCCCC=CCC1)CC31CC3C=CCCCCN3C21` (configuration not stated), for which the melting point lay in the range of 165 to 168 °C. Next, `N#CCOc1ccc2cc(-c3csc(-c4ccccc4)n3)ccc2c1`: 113 to 117 °C; `O=C(O)CCCCCCCNC(=O)c1ccccc1NC(=O)c1ccccc1O`: 124 to 125 °C; `CCOC(=O)CCC(=O)c1ccc(Cl)c(S(N)(=O)=O)c1`: 94 to 95 °C.

`c1ccc2oc(COc3ccc(CCCn4ccnc4)cc3)nc2c1`: the melting point fell in the range of 81 to 82 °C. Molecule `C[C@@H]1NC(=O)O[C@H]1c1ccc(C(C)(C)C)cc1` returned a melting point of 199 to 200 °C.

The molecule `OCc1cc2cc(-c3ccccc3)ccc2[nH]1` displayed a melting point of 115 to 116 °C.

Turning to `CCOC(=O)C(C)Oc1cc(-c2ccccc2)nc2ccccc12` (configuration not stated), the melting point came to 80 °C. On to `CC(C)c1cc(CCCOc2nn(C)cc2CC(=O)O)n(Cc2ccc(Cl)cc2Cl)n1`, for which the melting point lay in the range of 67 to 68 °C. In turn, `COc1ccc(CCNC(=O)CN(C(C)=O)c2cccc(C(N)=O)c2)cc1OC` had a melting point of 111 to 113 °C. In turn, `O=c1ccoc2ccc(OCCCCCl)cc12` came in with a melting point of 75 to 77 °C. As to `COc1cn(-c2ccc(N3CC=CC3)cc2F)nc(-c2ccnn2-c2ccccc2)c1=O`, the melting point was 204 to 207 °C.

Molecule `COc1ccc2[nH]c(C(=O)N3CCC[C@H](C)C3)cc2c1` came in with a melting point of 189 to 192 °C.

Take `CCCC=Cc1c(C(C)C)nc(C(C)C)c(CO)c1-c1ccc(C)cc1`: the melting point was in the range of 72 to 75 °C. As for `O=S(=O)(Cc1ccccc1)c1c[nH]c2ccccc12`, the melting point was 153 to 155 °C. Regarding `N#Cc1ccc(NC(=O)c2cccc(S(=O)(=O)N3CCOCC3)c2)c(-c2n[nH]c(=O)o2)c1`, the melting point lay within 283 to 285 °C. `CC(=O)OC1CCC2C3CCC4=CC(=O)C=CC4(C)C3CCC12C` (configuration not stated) yielded a melting point of 165 °C. As for `O=C(Nc1ccc(N(CCCl)CCCl)cc1)Nc1cccc([N+](=O)[O-])c1`, the melting point was in the range of 246 to 247 °C. Next, `Cc1ccc(N=C2SCS2)cc1`: 54.5 to 55 °C. `CC1(C)CCC(C)(C)c2c(O)cc(-c3ccccc3)cc21` registered a melting point of 121 °C. `CC(C(=O)c1ccc(OC2CCCCO2)cc1)c1ccccc1` (configuration not stated) returned a melting point of 94 to 96 °C.

In turn, `NCCNc1cc(Cl)cc(NCCN)c1[N+](=O)[O-]` displayed a melting point of 113 °C. `CCCCc1c2c(nc3cc(F)cc(F)c13)-c1cc3c(c(=O)n1C2)COC(=O)CC3(O)CC` (configuration not stated) showed a melting point of 190 °C. Next, `CN1CCN(CCCNC(=S)NC2CCCCC2)CC1`: 109 to 111 °C; `CC(C)OCC(O)COc1ccc(/C=C/C(=O)O)c(Oc2ncc(C(F)(F)F)cc2Cl)c1` (configuration not stated): 92 to 93 °C. The figure for `Cc1noc(NC(=O)N2CCC(c3nc(-c4ccc(F)cc4)cs3)CC2)c1C` is 170 to 171 °C.
